Among the data in US20050004134A1, “Thiazole derivative and pharmaceutical use thereof” (priority 2001, published 2005) are melting point values, retold here.

Each structure is given as a SMILES string. Where only a bound is given, the exact number is not on record here.

What is called melting point is the temperature of the solid-liquid transition. `C=CCn1nc(-c2sc(C(=O)NCc3ccccn3)nc2-c2ccccc2)ccc1=O` [Example 204, 5-(1-Allyl-6-oxo-1,6-dihydro-3-pyridazinyl)-4-phenyl-N-(2-pyridinylmethyl)-1,3-thiazole-2-carboxamide] came in with a melting point of 117 to 118 °C.

Turning to `O=C(NCc1ccccn1)c1nc(-c2ccccc2)c(-c2ccc(=O)n(Cc3ccccc3)n2)s1` [Example 205, 5-(1-Benzyl-6-oxo-1,6-dihydro-3-pyridazinyl)-4-phenyl-N-(2-pyridinylmethyl)-1,3-thiazole-2-carboxamide], the melting point fell in the range of 172.5 to 173.5 °C.

Regarding `COCCn1nc(-c2sc(C(=O)NCc3ccccn3)nc2-c2ccccc2)ccc1=O` [Example 206, 5-[1-(2-Methoxyethyl)-6-oxo-1,6-dihydro-3-pyridazinyl]-4-phenyl-N-(2-pyridinylmethyl)-1,3-thiazole-2-carboxamide], the melting point is 168 to 169.5 °C.

For `CC(C)n1nc(-c2sc(C(=O)NCc3ccccn3)nc2-c2ccccc2F)ccc1=O` [Example 207, 4-(2-Fluorophenyl)-5-(1-isopropyl-6-oxo-1,6-dihydro-3-pyridazinyl)-N-(2-pyridinylmethyl)-1,3-thiazole-2-carboxamide], the melting point was in the range of 190 to 191 °C.

In the case of `CC(C)n1nc(-c2sc(C(=O)NCc3ccccn3)nc2-c2cccc(F)c2)ccc1=O` [Example 208, 4-(3-Fluorophenyl)-5-(1-isopropyl-6-oxo-1,6-dihydro-3-pyridazinyl)-N-(2-pyridinylmethyl)-1,3-thiazole-2-carboxamide], the melting point was in the range of 188 to 189.5 °C.

On to `CC(C)n1nc(-c2sc(C(=O)NCc3ccccn3)nc2-c2cccc(Cl)c2)ccc1=O` [Example 209, 4-(3-Chlorophenyl)-5-(1-isopropyl-6-oxo-1,6-dihydro-3-pyridazinyl)-N-(2-pyridinylmethyl)-1,3-thiazole-2-carboxamide], for which the melting point was in the range of 168 to 169.5 °C.

For the compound `CC(C)n1nc(-c2sc(C(=O)NCc3ccccn3)nc2-c2ccccc2)ccc1=O` [Example 210, 5-(1-isopropyl-6-oxo-1,6-dihydro-3-pyridazinyl)-4-phenyl-N-(2-pyridinylmethyl)-1,3-thiazole-2-carboxamide], the melting point fell in the range of 176.5 to 177.5 °C.

Regarding `CC(C)n1nc(-c2sc(C(=O)NCc3ccccn3)nc2-c2ccc(F)cc2)ccc1=O` [Example 211, 4-(4-Fluorophenyl)-5-(1-isopropyl-6-oxo-1,6-dihydro-3-pyridazinyl)-N-(2-pyridinylmethyl)-1,3-thiazole-2-carboxamide], the melting point was in the range of 203.5 to 205 °C.

`CNC(=O)c1nc(-c2ccccc2)c(-c2ccc(=O)n(C(C)C)n2)s1` [Example 212, 5-(1-isopropyl-6-oxo-1,6-dihydro-3-pyridazinyl)-N-methyl-4-phenyl-1,3-thiazole-2-carboxamide] registered a melting point of 165 to 167.5 °C.

In turn, `CC(C)n1nc(-c2sc(C(=O)N(C)C)nc2-c2ccccc2)ccc1=O` [Example 213, 5-(1-isopropyl-6-oxo-1,6-dihydro-3-pyridazinyl)-N,N-dimethyl-4-phenyl-1,3-thiazole-2-carboxamide] came in with a melting point of 141 to 144 °C.

The compound `CCCCNC(=O)c1nc(-c2ccccc2)c(-c2ccc(=O)n(C(C)C)n2)s1` [Example 215, N-butyl-5-(1-isopropyl-6-oxo-1,6-dihydro-3-pyridazinyl)-4-phenyl-1,3-thiazole-2-carboxamide] displayed a melting point of 147.5 to 148.5 °C.

With `CC(=O)NCCNC(=O)c1nc(-c2ccccc2)c(-c2ccc(=O)n(C(C)C)n2)s1` [Example 217, N-[2-(Acetylamino)ethyl]-5-(1-isopropyl-6-oxo-1,6-dihydro-3-pyridazinyl)-4-phenyl-1,3-thiazole-2-carboxamide], the melting point fell in the range of 170 to 171.5 °C.

`CC(C)n1nc(-c2sc(C(=O)N3CCCCC3)nc2-c2ccccc2)ccc1=O` [Example 218, 2-Isopropyl-6-[4-phenyl-2-(1-piperidinylcarbonyl)-1,3-thiazol-5-yl]-3(2H)-pyridazinone] gave a melting point of 111 to 112 °C.

For the compound `CC(=O)N1CCN(C(=O)c2nc(-c3ccccc3)c(-c3ccc(=O)n(C(C)C)n3)s2)CC1` [Example 219, 6-{2-[(4-Acetyl-1-piperazinyl)carbonyl]-4-phenyl-1,3-thiazol-5-yl}-2-isopropyl-3(2H)-pyridazinone], the melting point was in the range of 78 to 82 °C.

`CC(C)n1nc(-c2sc(C(=O)NCc3ccccc3)nc2-c2ccccc2)ccc1=O` [Example 220, N-Benzyl-5-(1-isopropyl-6-oxo-1,6-dihydro-3-pyridazinyl)-4-phenyl-1,3-thiazole-2-carboxamide]: the melting point lay within 186 to 187 °C.

On to `Cc1cnc(CNC(=O)c2nc(-c3ccc(F)cc3)c(-c3ccc(=O)n(C(C)C)n3)s2)cn1` [Example 221, 4-(4-Fluorophenyl)-5-(1-isopropyl-6-oxo-1,6-dihydro-3-pyridazinyl)-N-[(5-methyl-2-pyrazinyl)methyl]-1,3-thiazole-2-carboxamide], for which the melting point lay in the range of 187.5 to 188.5 °C.

Take `CC(C)n1nc(-c2sc(C(=O)NCC(N)=O)nc2-c2ccccc2)ccc1=O` [Example 222, N-(2-amino-2-oxoethyl)-5-(1-isopropyl-6-oxo-1,6-dihydro-3-pyridazinyl)-4-phenyl-1,3-thiazole-2-carboxamide]: the melting point fell in the range of 247.5 to 249 °C.

As for `CC(C)n1nc(-c2sc(C(=O)NCCN3CCOCC3)nc2-c2ccccc2)ccc1=O` [Example 224, 5-(1-Isopropyl-6-oxo-1,6-dihydro-3-pyridazinyl)-N-[2-(4-morpholinyl)-ethyl]-4-phenyl-1,3-thiazole-2-carboxamide], the melting point was 196.5 to 197.5 °C.

Compound `CC(C)n1nc(-c2sc(C(=O)NC3CCCCC3)nc2-c2ccccc2)ccc1=O` [Example 225, N-Cyclohexyl-5-(1-isopropyl-6-oxo-1,6-dihydro-3-pyridazinyl)-4-phenyl-1,3-thiazole-2-carboxamide] came in with a melting point of 225 to 226 °C.

On to `CC(C)n1nc(-c2sc(C(=O)N3CCCC3)nc2-c2ccccc2)ccc1=O` [Example 226, 2-Isopropyl-6-[4-phenyl-2-(1-pyrrolidinylcarbonyl)-1,3-thiazol-5-yl]-3(2H)-pyridazinone], for which the melting point lay within 169 to 170.5 °C.

With `CC(C)n1nc(-c2sc(C(=O)N3CCOCC3)nc2-c2ccccc2)ccc1=O` [Example 227, 2-Isopropyl-6-[2-(4-morpholinylcarbonyl)-4-phenyl-1,3-thiazol-5-yl]-3(2H)-pyridazinone], the melting point was in the range of 161.5 to 162.5 °C.

On to `CC(C)n1nc(-c2sc(C(=O)N3CCN(C)CC3)nc2-c2ccccc2)ccc1=O` [Example 228, 2-Isopropyl-6-{2-[(4-methyl-1-piperazinyl)carbonyl]-4-phenyl-1,3-thiazol-5-yl)-3(2H)-pyridazinone], for which the melting point lay in the range of 155 to 156.5 °C.

In turn, `CC(C)n1nc(-c2sc(C(=O)N3CCN(Cc4ccccc4)CC3)nc2-c2ccccc2)ccc1=O` [Example 229, 6-{2-[(4-Benzyl-1-piperazinyl)carbonyl]-4-phenyl-1,3-thiazol-5-yl}-2-isopropyl-3(2H)-pyridazinone] had a melting point of 181 to 182 °C.

Compound `CC(C)n1nc(-c2sc(C(=O)N3CCN(c4ccccc4)CC3)nc2-c2ccccc2)ccc1=O` [Example 231, 2-isopropyl-6-(4-phenyl-2-[(4-phenyl-1-piperazinyl)carbonyl]-1,3-thiazol-5-yl}-3(2H)-pyridazinone] registered a melting point of 163.5 to 165 °C.

The compound `CC(C)n1nc(-c2sc(C(=O)NCCc3ccccn3)nc2-c2ccccc2)ccc1=O` [Example 234, 5-(1-Isopropyl-6-oxo-1,6-dihydro-3-pyridazinyl)-4-phenyl-N-[2-(2-pyridinyl)ethyl]-1,3-thiazole-2-carboxamide] came in with a melting point of 144 to 147 °C.

`CC(C)n1nc(-c2sc(C(=O)NCc3ccncc3)nc2-c2ccc(F)cc2)ccc1=O` [Example 236, 4-(4-Fluorophenyl)-5-(1-isopropyl-6-oxo-1,6-dihydro-3-pyridazinyl)-N-(4-pyridinylmethyl)-1,3-thiazole-2-carboxamide] came in with a melting point of 155 to 157 °C.

Take `CC(C)n1nc(-c2sc(C(=O)NCCc3ccccn3)nc2-c2ccc(F)cc2)ccc1=O` [Example 237, 4-(4-Fluorophenyl)-5-(1-isopropyl-6-oxo-1,6-dihydro-3-pyridazinyl)-N-[2-(2-pyridinyl)ethyl]-1,3-thiazole-2-carboxamide]: the melting point lay within 144 to 145 °C.

For the compound `CONC(=O)c1nc(-c2ccc(F)cc2)c(-c2ccc(=O)n(C(C)C)n2)s1` [Example 238, 4-(4-fluorophenyl)-5-(1-isopropyl-6-oxo-1,6-dihydro-3-pyridazinyl)-N-methoxy-1,3-thiazole-2-carboxamide], the melting point was in the range of 164.5 to 166.5 °C.

As to `CC(C)n1nc(-c2sc(C(=O)NN(C)C)nc2-c2ccc(F)cc2)ccc1=O` [Example 239, 4-(4-Fluorophenyl)-5-(1-isopropyl-6-oxo-1,6-dihydro-3-pyridazinyl)-N′,N′-dimethyl-1,3-thiazole-2-carbohydrazide], the melting point was 169 to 170.5 °C.

In turn, `CC(C)n1nc(-c2sc(C(N)=S)nc2-c2ccccc2)ccc1=O` [Example 240, 5-(1-isopropyl-6-oxo-1,6-dihydro-3-pyridazinyl)-4-phenyl-1,3-thiazole-2-carbothioamide] yielded a melting point greater than 250 °C.
